These results are taken from ChEMBL document CHEMBL3352361, “Design and synthesis of coumarin-3-acylamino derivatives to scavenge radicals and to protect DNA” (Eur J Med Chem, 2014).

Assay type in all cases: physicochemical
A short description of series [1]: Antioxidant activity assessed as inhibition time period for protection against AAPH-induced DNA oxidation at 37 degC by TBARS method.
A short description of series [2]: Antioxidant activity assessed as OH-induced DNA oxidation at 150 uM by TBARS method.
Series [3] is described as follows: Antioxidant activity assessed as protection against Cu2+/GSH-induced DNA oxidation at 150 uM up to 180 mins by TBARS method. Conditions: 3 h; call rule not given here.

On to `COc1cc2cc(C(=O)NCCc3ccccc3)c(=O)oc2cc1O`, for which the Time in series [1] was 1.61 min. The Activity in series [2] worked out at 73.6%. The “inhibition (INH)” value in series [3] was “Not Active”.
For `O=C(O)c1cc2ccc(O)cc2oc1=O` the same measures were 0.82 min, 78.8% and “Active”.
For `COc1cc2cc(C(=O)NCCc3ccc(O)cc3)c(=O)oc2cc1O`, in series [1], the Time is given as 7.43 min. In addition, in series [2], the Activity was found to be 68.1%. In addition, in series [3], the “inhibition (INH)” value is given as “Not Active”.
For `O=C(NCCc1ccc(O)cc1)c1cc2ccc(O)cc2oc1=O`, the Activity in series [2] is 71.5%. Besides, in series [3], the “inhibition (INH)” value is “Not Active”.
Turning to `O=C(NCCc1ccccc1)c1cc2ccc(O)cc2oc1=O`, the Activity in series [2] is given as 75.3%. Moreover, the “inhibition (INH)” value in series [3] is on record as “Not Active”.
For the molecule `O=C(NCCc1ccc(O)cc1)c1cc2ccccc2oc1=O`, in series [1], the Time was found to be 1.28 min. The Activity in series [2] is reported as 76.4%. Also, the “inhibition (INH)” value in series [3] is “Not Active”.
For `COc1cc2cc(C(=O)O)c(=O)oc2cc1O` the same measures were 2.92 min, 86.5% and “Active”.
Turning to `O=C(O)c1cc2ccccc2oc1=O` [COUMARIN-3-CARBOXYLIC ACID], the Activity in series [2] was determined as 82.6%. Further, in series [3], the “inhibition (INH)” value is listed as “Active”.
As for `O=C(NCCc1ccccc1)c1cc2ccccc2oc1=O`, in series [2], the Activity came to 72.9%. Further, the “inhibition (INH)” value in series [3] is recorded as “Active”.
